Legend:
[1] = system: Glomerella lagenarium (Colletotrichum lagenarium); test: Fungicidal activity against Glomerella lagenarium (Colletotrichum lagenarium) liquid culture / cucumber / preventative (anthracnose); assay type: cell-based; conditions: Colletotrichum orbiculare; 20 ppm in the applied formulation; liquid culture (PDB), growth inhibition measured photometrically after 3 to 4 days; compared to untreated control; read-out: disease control
Outline: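 Photometric read-out of fungal growth after 2–7 days, expressed as percent antifungal activity versus untreated check. Cryo-stored conidia in PDB; compound at 20 ppm; dark, 24 °C, 96% RH.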

[2] = system: Puccinia recondita f. Sp. Tritici; test: Fungicidal activity against Puccinia recondita f. sp. tritici / wheat / leaf disc curative (brown rust); assay type: in vivo; conditions: foliar, 24 h, 200 ppm in the applied formulation, wheat leaf segments, curative (applied 1 day after inoculation), compared to untreated control leaf disks, read-out: disease control
Outline: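 % disease control vs untreated, scored 6–8 d post-application. Wheat cv. Kanzler segments, spore-inoculated, dark 19° C/75% RH; formulated cpd applied 1 d post-inoc; then 19° C, 75% RH, 12 h L/12 h D.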

Phakopsora Pachyrhizi = test: Fungicidal activity against Phakopsora pachyrhizi / soybean / leaf disc preventative (Asian soybean rust); assay type: in vivo; conditions: foliar, 200 ppm in the applied formulation, soybean leaf disks, compared to untreated control leaf disks, read-out: disease control
Outline: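 Preventative soybean leaf-disc test: discs on water agar sprayed with diluted formulated compound, inoculated one day later with spores on the lower surface. Held 24–36 h dark at 20°C, 75% rh, then 12 h light/day; percent disease control versus untreated discs scored 12–14 days after application.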

[3] = system: Puccinia recondita f. Sp. Tritici; test: Fungicidal activity against Puccinia recondita f. sp. tritici / wheat / leaf disc preventative (brown rust); assay type: in vivo; conditions: foliar, 200 ppm in the applied formulation, wheat leaf segments, preventative, compared to untreated control leaf disks, read-out: disease control
Outline: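 Compound application precedes infection: segments of wheat cv. Kanzler, sprayed at 200 ppm, are inoculated with a spore suspension after 1 day. Incubation is at 19° C. with 75% relative humidity and 12 h light/12 h darkness, and control versus untreated leaves is rated 7 to 9 days post-application.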

C#CCN(Cc1ccc(-c2noc(C(F)(F)F)n2)cc1)C(=O)CCC(F)(F)F [Compound 1.169, 4,4,4-trifluoro-N-prop-2-ynyl-N-[[4-[5-(trifluoromethyl)-1,2,4-oxadiazol-3-yl]phenyl]methyl]-butanamide]
≥ 80%: inhibition of growth at 20 ppm [1] | pest or weed control at 200 ppm [2] | pest or weed control at 200 ppm (Phakopsora Pachyrhizi) | pest or weed control at 200 ppm [3]

CCOCC(=O)N(CCOC)Cc1ccc(-c2noc(C(F)(F)F)n2)cc1 [Compound 1.339, 2-ethoxy-N-(2-methoxyethyl)-N-[[4-[5-(trifluoromethyl)-1,2,4-oxadiazol-3-yl]phenyl]methyl]-acetamide]
≥ 80%: inhibition of growth at 20 ppm [1] | pest or weed control at 200 ppm [2] | pest or weed control at 200 ppm (Phakopsora Pachyrhizi) | pest or weed control at 200 ppm [3]

N#CCC(=O)N(Cc1ccc(-c2noc(C(F)(F)F)n2)cc1)C1CC1 [Compound 1.146, 2-cyano-N-cyclopropyl-N-[[4-[5-(trifluoromethyl)-1,2,4-oxadiazol-3-yl]phenyl]methyl]-acetamide]
≥ 80%: inhibition of growth at 20 ppm [1] | pest or weed control at 200 ppm [2] | pest or weed control at 200 ppm (Phakopsora Pachyrhizi) | pest or weed control at 200 ppm [3]

C#CCN(Cc1ccc(-c2noc(C(F)(F)F)n2)cc1)C(=O)C1CC1C (stereo not drawn) [Compound 1.181, 2-methyl-N-prop-2-ynyl-N-[[4-[5-(trifluoromethyl)-1,2,4-oxadiazol-3-yl]phenyl]methyl]-cyclopropane-carboxamide]
≥ 80%: inhibition of growth at 20 ppm [1] | pest or weed control at 200 ppm [2] | pest or weed control at 200 ppm (Phakopsora Pachyrhizi) | pest or weed control at 200 ppm [3]

CN(Cc1ccc(-c2noc(C(F)(F)F)n2)cc1)C(=O)C1CC1(F)F (stereo not drawn) [Compound 1.523, 2,2-difluoro-N-methyl-N-[[4-[5-(trifluoromethyl)-1,2,4-oxadiazol-3-yl]phenyl]methyl]-cyclopropane-carboxamide]
≥ 80%: inhibition of growth at 20 ppm [1] | pest or weed control at 200 ppm [2] | pest or weed control at 200 ppm (Phakopsora Pachyrhizi) | pest or weed control at 200 ppm [3]

O=C(C1CCC1)N(O)Cc1ccc(-c2noc(C(F)(F)F)n2)cc1 [Compound 1.761, N-hydroxy-N-[[4-[5-(trifluoromethyl)-1,2,4-oxadiazol-3-yl]phenyl]methyl]-cyclobutane-carboxamide]
≥ 80%: inhibition of growth at 20 ppm [1] | pest or weed control at 200 ppm [2] | pest or weed control at 200 ppm (Phakopsora Pachyrhizi) | pest or weed control at 200 ppm [3]

C#CCN(Cc1ccc(-c2noc(C(F)(F)F)n2)cc1)C(=O)CCOC [Compound 1.173, 3-methoxy-N-prop-2-ynyl-N-[[4-[5-(trifluoromethyl)-1,2,4-oxadiazol-3-yl]phenyl]methyl]-propanamide]
≥ 80%: inhibition of growth at 20 ppm [1] | pest or weed control at 200 ppm [2] | pest or weed control at 200 ppm (Phakopsora Pachyrhizi) | pest or weed control at 200 ppm [3]

CC1(C(=O)N(Cc2ccc(-c3noc(C(F)(F)F)n3)cc2)C2CC2)COC1 [Compound 1.128, N-cyclopropyl-3-methyl-N-[[4-[5-(trifluoromethyl)-1,2,4-oxadiazol-3-yl]phenyl]methyl]-oxetane-3-carboxamide]
≥ 80%: inhibition of growth at 20 ppm [1] | pest or weed control at 200 ppm [2] | pest or weed control at 200 ppm (Phakopsora Pachyrhizi) | pest or weed control at 200 ppm [3]

CCC(C)N(Cc1ccc(-c2noc(C(F)(F)F)n2)cc1)C(=O)C1(C#N)CC1 (stereo not drawn) [Compound 1.399, 1-cyano-N-sec-butyl-N-[[4-[5-(trifluoromethyl)-1,2,4-oxadiazol-3-yl]phenyl]methyl]-cyclopropane-carboxamide]
≥ 80%: inhibition of growth at 20 ppm [1] | pest or weed control at 200 ppm [2] | pest or weed control at 200 ppm (Phakopsora Pachyrhizi) | pest or weed control at 200 ppm [3]

Source: patent US11180462B2, “Microbiocidal oxadiazole derivatives” (SYNGENTA PARTICIPATIONS AG, priority 2015, dated 2021)
